The values below come from publication PMC10149936, “Cofilin activation in pancreatic acinar cells plays a pivotal convergent role for mediating CCK-stimulated enzyme secretion and growth” (Frontiers in Physiology, 2023).

Experiment [1] has as its system cofilin (pS3) in rat pancreatic acini. In words: cofilin activation (phospho-pS3 cofilin Western blot) in isolated rat pancreatic acini. Type of experiment: cell-based. To be noted: for reversal of cofilin dephosphorylation by CCK-8: Wortmannin 1 µM, LY294002 100 µM, SB202190 10 µM, U0126 10 µM, Y-27632 10 µM 1 h, SP600125 20 µM 3 h. How it is done:
(§1) Pancreatic acini preparations were obtained by collagenase digestion as previously described ([Bissonnette et al., 1984]; [Sato et al., 1989]; [Ramos-Alvarez and Jensen, 2018]). After collagenase digestion, dispersed acini were preincubated with different inhibitors in standard incubation solution ([Ramos-Alvarez and Jensen, 2018]; [Ramos-Ãlvarez et al., 2020]) for 3 h at 37°C under conditions specific for PKD/PKC, Src, PI3K, MAPKs, SSH1, LIMK, cofilin, other phosphatases and PAK4 inhibitors, as described previously ([Ramos-Alvarez and Jensen, 2018]; [Ramos-Ãlvarez et al., 2020]). Isolated acini and CCK1-R/Panc-1 cells (M&M 2.2.1) were also preincubated with two SSH1 inhibitors, D3 (25 μM, 1 h) ([Li et al., 2015]) or SE (50 μM, 3 h for acini; 24 h for CCK1-R/Panc-1 cells) ([Lee et al., 2017]). After preincubation, 1 mL aliquots of dispersed acini were incubated at 37°C for 3–15 min with CCK-8 (0.3 nM or 100 nM), for 5–15 min with TPA (1 µM) or without stimulants, used as control. Cells were lysed in lysis buffer (50 mM Tris/HCl pH 7.5, 150 mM NaCl, 1% Triton X-100, 1% deoxycholate, 0.1% sodium azide, 1 mM EGTA, 0.4 mM EDTA, 0.2 mM sodium orthovanadate, 1 mM PMSF, and one protease inhibitor tablet per 10 mL). After sonication, lysates were centrifuged at 10,000×g for 15 min at 4°C and protein concentration was measured using the Bio-Rad protein assay reagent. Finally, cells were processed as below for Western blotting.
(§2) Both concentrations of CCK-8 were used because CCK-8 is reported to have different responses with physiological and supraphysiological concentrations contributing to physiological and pathophysiological processes such as pancreatitis ([Dufresne et al., 2006]).
(§3) Western blotting and immunoprecipitation were performed as described previously ([Ramos-Alvarez and Jensen, 2018]). Whole cell lysates were subjected to SDS-PAGE using 4%–20% Tris–Glycine gels. […] Finally, membranes were then washed again twice in blocking buffer for 4 min, twice in washing buffer for 4 min, incubated for 4 min with chemiluminescence detection reagents. The intensity of the protein bands was measured using GeneTools software from Syngene, which were assessed in the linear detection range.
All experiments were performed at least 3 times. Data are presented as mean ± SEM and were analyzed with the non-parametric Kruskal–Wallis analysis (data was not normally distributed) and the Dunn’s multiple comparison test using the GraphPad Prism 8.0 software. P values < 0.05 were considered significant.
(A) Isolated pancreatic acini were incubated in the absence or presence of CCK-8 (100 nM), carbachol (1 μM), bombesin (1 nM), secretin (1 nM) or VIP (1 nM) for 1 min and then lysed. (B) Isolated pancreatic acini were incubated in the absence or presence of CCK-8 and CCK-JMV (at the indicate concentrations) for 3 min and then lysed. Western blots were analyzed using anti-pS3 cofilin, which mediates the activation state of cofilin. Bands were visualized using chemiluminescence and quantified by densitometry.

Experiment [2] has as its system cofilin / phospho-PP2A association. Nature of the experiment: co-immunoprecipitation of cofilin with phospho-PP2A (pY307) in pancreatic acini. The following applies: legend: kbNB 0.1 µM or PP2 10 µM, 3 h; CCK-8 100 nM, TPA 1 µM. In kind it is cell-based, rat. As to the method: For co-immunoprecipitation, 600 μg of protein was incubated with 15 μL of the anti-cofilin antibody (Santa Cruz Biotechnology, Inc. Dallas, TX) and 25 μL of protein A/G agarose beads (Thermo-Fisher Scientific. Waltham, MA) overnight at 4°C under agitation. Samples were washed three times with lysis buffer, re-suspended in 12.5 μL of Sample Buffer, Laemlii 2x concentrate and boiled for 5 min before western blotting.
FIGURE 8 Effect of a PKD inhibitor, kbNB, or a Src inhibitor, PP2, on the ability of CCK-8 (100 nM) and TPA (1 µM) to stimulate the association of cofilin with either phospho-PP2A (A) or total PP2A (B). Isolated pancreatic acini were incubated in the absence or presence of kbNB (0.1 µM) or PP2 (10 µM) for 3 h and then incubated with no addition (control), CCK-8 (100 nM, 3 min) or TPA (1 μM, 5 min), and then lysed. Equal amounts of protein were co-immunoprecipitated with an anti-cofilin (Santa Cruz, SC-376476) and then subjected to Western blots using anti-pY307 PP2A and anti-PP2A. Bands were visualized using chemiluminescence and quantified by densitometry. Top: Results of a representative blot of four independent experiments are shown. Bottom: Means ± S.E. of at least 4 independent experiments. Results are expressed as % of basal stimulation of the control group. N.S., No significant.

The next experiment concerns p38α. The following applies: reference not given; cited from earlier work.
The subject of the next experiment is p38β. The following applies: reference not given; cited from earlier work.
In experiment [3] the test system is LIMK (pT508) in pancreatic acini. Nature of the experiment: LIMK phosphorylation (pT508 LIMK Western blot) in isolated rat pancreatic acini. In kind it is cell-based. How it is done: as §1, §2, §3
Isolated pancreatic acini were incubated with either no addition (control), CCK-8 (0.3 and 100 nM) or TPA (1 µM) for the indicated periods of time and then lysed. Western blots were analyzed using anti-pT508 LIMK, anti-pS3 cofilin and anti-pS978 SSH1, which […] the activation states of LIMK, cofilin and SSH1. Bands were visualized using chemiluminescence and quantified by densitometry.

In experiment [4] the test system is cofilin (pS3) in CCK1-R/Panc-1 cells. In words: cofilin activation (pS3 cofilin Western blot) in CCK1-R/Panc-1 cells. In kind it is cell-based, human. To be noted: CCK-8 0.3 or 100 nM; D3 25 µM 1 h or SE 50 µM 24 h. As to the method:
CCK1 receptor transfected Panc-1 (CCK1-R/Panc-1) cells ([Berna et al., 2009]) and AR42J cells, were cultured in DMEM supplemented with 10% FBS and 1% penicillin/streptomycin and in RPMI supplemented with 10% FBS and 1% penicillin/streptomycin, respectively; and split 1:10 weekly with trypsin/EDTA, after washing in PBS. Finally, cells were seeded in 6-well plate and serum starved overnight, until they were 80% confluent. Cells were incubated at 37°C in 5% CO2/95% air. AR42J cells were treated with 100 nM dexamethasone for 72°h, which stimulates their differentiation into exocrine cells ([Logsdon, 1986]).
Pancreatic acini preparations were obtained by collagenase digestion as previously described ([Bissonnette et al., 1984]; [Sato et al., 1989]; [Ramos-Alvarez and Jensen, 2018]). […] Isolated acini and CCK1-R/Panc-1 cells (M&M 2.2.1) were also preincubated with two SSH1 inhibitors, D3 (25 μM, 1 h) ([Li et al., 2015]) or SE (50 μM, 3 h for acini; 24 h for CCK1-R/Panc-1 cells) ([Lee et al., 2017]). […] After sonication, lysates were centrifuged at 10,000×g for 15 min at 4°C and protein concentration was measured using the Bio-Rad protein assay reagent. […]
Western blotting and immunoprecipitation were performed as described previously ([Ramos-Alvarez and Jensen, 2018]). […] The intensity of the protein bands was measured using GeneTools software from Syngene, which were assessed in the linear detection range. […]
FIGURE 3 Effect of two SSH1 inhibitors, D3 and SE (A–C), or SSH1 siRNA (D), on the ability of CCK-8 (0.3 and 100 nM) to activate LIMK and cofilin in pancreatic acini (A/B) and activate cofilin in CCK1-R/Panc-1 cells (C/D). […] Western blots were analyzed using anti-pS3 cofilin and anti-pT508 […], and the knockdown effect of SSH1 was confirmed by Western blots using SSH1 (C-term) antibody. Bands were visualized using chemiluminescence and quantified by densitometry. […] Results are expressed as % of basal stimulation of the control group. *, p < 0.05 compared to the control group; ∞, p < 0.05 compared to stimulants without inhibitors. […]

For a further experiment, the system named is MEK1. The following applies: non ATP-competitive; reference not given; cited from earlier work.
The subject of the next experiment is MEK2. The following applies: non ATP-competitive; reference not given; cited from earlier work.
Another experiment concerns PP2A / PP1. The following applies: low concentrations; ref Ishihara et al., 1989; Takai et al., 1992; Lutz et al., 1993; Schmidt et al., 1994; Walsh et al., 1997; cited from earlier work. From the text: (Figures 5, 6) In human T lymphocytes, neurons, the 293 T cell line (human embryonic kidney 293 cells) and HeLa cells, it is reported that activation of cofilin can occur due its dephosphorylation through the co-stimulation activation of accessory receptors (e.g.,.CD2, CD3 or CD28) by CD3xCD28 mAb, with Endothelin-1 (ET-1), and the Ca^2+ ionophore A23187, which is mediated by activation of serine protein phosphatases ([Ambach et al., 2000]; [Wang et al., 2005]; [Tam et al., 2019]). Therefore, to explores the possible role of the protein phosphatases PP1, PP2A, PP2B in CCK-8-induced activation ...

The mark [5] stands for this setting: SE 50 µM 3 h or D3 25 µM 1 h, no stimulant.

For the compound `CN(C)CCCn1cc(C2=C(c3c[nH]c4ccccc34)C(=O)NC2=O)c2ccccc21` [GF109203X], the “effect on basal phosphorylation level of cofilin” value in [1] (GFX 5 µM, kbNB 0.1 µM or PP2 10 µM, 3 h, no stimulant) is “None of these inhibitors altered the basal phosphorylation level of cofilin”. Further, in experiment [1] (GFX 5 µM, kbNB 0.1 µM or PP2 10 µM, 3 h, CCK-8 100 nM 3 min, TPA 1 µM 5 min), the “reversal of cofilin dephosphorylation stimulated by CCK-8 and TPA” value is on record as “completely reversed”. For the same compound, the “inhibition of decrease in phospho-PP2A co-immunoprecipitation stimulated by CCK-8 and TPA” value in [2] is “completely inhibited”.

Consider `Oc1ccc(-c2nc(-c3ccncc3)c(-c3ccc(F)cc3)[nH]2)cc1` [SB202190], for which the “reversal of cofilin dephosphorylation by CCK-8” value in experiment [1] (CCK-8 0.3 and 100 nM 3 min) is “not PI3K or p38”. Besides, the IC50 in the experiment with p38α was […]; in the experiment on p38β, […].

For the compound `O=C(O)c1cc(O)c2c(c1)[C@H]([C@H]1c3cc(C(=O)O)cc(O)c3C(=O)c3c(O[C@@H]4O[C@H](CO)[C@@H](O)[C@H](O)[C@H]4O)cccc31)c1cccc(O[C@@H]3O[C@H](CO)[C@@H](O)[C@H](O)[C@H]3O)c1C2=O` [SE, Sennoside A], the inhibition at 50 µM in experiment [1] (Rattus norvegicus, CCK-8 0.3 or 100 nM, 5 min, SE 50 µM 3 h or D3 25 µM 1 h preincubation, n at least 4, read-out: inhibition of CCK-8-caused cofilin dephosphorylation) was 30 to 33%; in experiment [3] (Rattus norvegicus, CCK-8 0.3 or 100 nM, 5 min, SE 50 µM 3 h or D3 25 µM 1 h preincubation, read-out: inhibition of CCK-8's dephosphorylation of LIMK) it was 20%. Besides, the “effect on basal phosphorylation of cofilin” value in experiment [1] (setting [5]) was “Neither D3 nor SE affected the basal phosphorylation of LIMK or cofilin”. Also, the “effect on basal phosphorylation of LIMK” value in [3] (setting [5]) was “Neither D3 nor SE affected the basal phosphorylation of LIMK or cofilin”. Further, the “inhibition of CCK-8-induced dephosphorylation of cofilin” value in experiment [4] is “completely inhibited”.

As for `N#CC(=C(/N)Sc1ccccc1N)/C(C#N)=C(/N)Sc1ccccc1N` [U0126], the “reversal of cofilin dephosphorylation by CCK-8” value in [1] (CCK-8 0.3 and 100 nM 3 min) is “Only preincubation with the JNK inhibitor, SP600125 (Figure 10C), and the ROCK inhibitor, Y-27632, (Figure 10D), completely reversed cofilin dephosphorylation by CCK-8”. Besides, the concentration for half-maximal inhibition (IC50) in the experiment with MEK1 was 72 nM; in the experiment on MEK2 it was 58 nM.

`COC[C@@H]([C@H](O)[C@H](O)C(=O)NCC[C@H](C)c1nc(/C=C/C[C@@H]2O[C@]3(C[C@@H](O)[C@@H]2C)O[C@H]([C@H](C[C@H](O)[C@H](C)[C@H](O)[C@H](C)/C=C(C)/C(C)=C/C=C/C(C)=C\C#N)OC)[C@H](OP(=O)(O)O)C3(C)C)co1)N(C)C` [calyculin A]: in experiment [1] (calyculin A 1 nM or okadaic acid 10 nM, 3 h, no stimulant), the “decrease of basal level of cofilin phosphorylation” value amounted to 24%. In addition, the “inhibition of cofilin activation stimulated by CCK-8” value in experiment [1] (calyculin A 1 nM or okadaic acid 10 nM, 3 h, CCK-8 0.3 and 100 nM 3 min) is recorded as “completely inhibited”. Further, in the experiment on PP2A / PP1, the “selectivity PP1/PP2A/PP2B” value is “inhibits equally PP1 and PP2A activity, but not PP2B”.
